Test systems include LXFL 529 NSCLC; HOP-18 NSCLC; XF 498 CNS; SNB-78 CNS; DLD-1 colon; MDA-N; M19-MEL melanoma; DMS 114 small cell lung; RXF-631 renal.
Test in all cases: NCI anticancer screen, dose series, 48 h

Structures are written as SMILES. “And” between values parts separate entries of the source, which are not always exact repeats. Equal values may be shown once.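 Test compounds were applied to cells in 96-well plates for 48 hours at 5 doses. GI50 is the concentration that inhibits growth by half. TGI: total growth inhibition.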

As for `CN(C)C=Nc1nc(=O)n(C2CCC(CO)O2)cc1F` (stereo not drawn), the TGI with LXFL 529 NSCLC, with HOP-18 NSCLC, in the assay with XF 498 CNS, with SNB-78 CNS and with DLD-1 colon was > 100 µM throughout.

On to `NC(N)=NS(=O)(=O)c1ccc(N=Nc2c(O)c(C(=O)O)cc3ccccc23)cc1`, for which, in the assay on MDA-N, the TGI was > 100 µM.

For the molecule `CCOC(=O)C1=C(C)N(NC(=O)Nc2ccccc2)C2(N)N(NC(=O)Nc3ccccc3)C(C)=C(C(=O)OCC)C12C(=O)OCC` (stereo not drawn), the TGI in the assay with M19-MEL melanoma is > 100 µM; in the assay with LXFL 529 NSCLC, > 100 µM; with HOP-18 NSCLC, 54.6 µM; with XF 498 CNS it was 37.9 µM; in the assay on DMS 114 small cell lung it was > 100 µM; in the assay with SNB-78 CNS, > 100 µM. Moreover, the TGI with RXF-631 renal and in the assay with DLD-1 colon was > 100 µM throughout.

As for `CN(C)C(=S)/N=c1\ssc(=S)n1C1CCCCC1`, the TGI with M19-MEL melanoma is > 100 µM; with LXFL 529 NSCLC, 75.6 µM; in the assay with HOP-18 NSCLC, > 100 µM; in the assay with XF 498 CNS, 59.3 µM; in the assay with DMS 114 small cell lung, 50.5 µM; with RXF-631 renal, 40.8 µM. In the assay with DLD-1 colon, this molecule came in with a TGI of 58.2 µM.

For `C=C(C)C(=O)O[C@@H]1C[C@@]2(C)O[C@@H]2C[C@H](O)/C(C)=C/[C@H]2OC(=O)C(=C)[C@@H]21`, in the assay with MDA-N, the TGI was > 100 µM.

`O=C(NC1C=CCC2C(=O)N(c3ccccc3)C(=O)C12)OCc1ccccc1` (stereo not drawn): the TGI with M19-MEL melanoma, in the assay with LXFL 529 NSCLC, with HOP-18 NSCLC, with XF 498 CNS, with SNB-78 CNS and with DLD-1 colon was > 100 µM in each case.

Regarding `Cc1ccc(S(=O)(=O)N2CCC2c2ccccc2)cc1` (stereo not drawn), the TGI in the assay on M19-MEL melanoma, in the assay on HOP-18 NSCLC, in the assay on XF 498 CNS, in the assay on DMS 114 small cell lung and with SNB-78 CNS was > 100 µM throughout.

For the molecule `C[C@@]1(O)CC[C@]2(C)C3CCCC3[C@H]12` (stereo partly drawn), the TGI with M19-MEL melanoma, with LXFL 529 NSCLC, in the assay with HOP-18 NSCLC, in the assay on DMS 114 small cell lung, with SNB-78 CNS and with RXF-631 renal was > 100 µM each time. For the same molecule, the TGI with DLD-1 colon was > 100 µM.

Turning to `O=C1C(C(Nc2ccccc2)c2ccccc2)=C([O-])c2ccccc21.O=C1C(C(Nc2ccccc2)c2ccccc2)=C([O-])c2ccccc21.[Cu+2]` (stereo not drawn), the GI50 with M19-MEL melanoma is > 100 µM; with HOP-18 NSCLC, > 100 µM; with SNB-78 CNS, 84.6 µM; in the assay with DLD-1 colon, 34.6 µM. The TGI in the assay with M19-MEL melanoma, in the assay on HOP-18 NSCLC, in the assay with SNB-78 CNS and in the assay on DLD-1 colon was > 100 µM each time.

In the assay with MDA-N, `C=C(C)C12OC1[C@@]1(C)C(=CC2=O)CCC(O)[C@@H]1C` (stereo partly drawn) gave a TGI of 17.3 µM.

For `O=c1c2cccnc2ncn1CCN1CCCCC1`, the TGI with M19-MEL melanoma, with LXFL 529 NSCLC, in the assay on XF 498 CNS, in the assay on DMS 114 small cell lung, in the assay with SNB-78 CNS and in the assay with DLD-1 colon was > 100 µM in each case.

As to `COc1cc2c(cc1OC)C(Cl)C(c1ccc(F)cc1)=C2Cl` (stereo not drawn), the TGI in the assay on M19-MEL melanoma was 38.7 µM; in the assay with LXFL 529 NSCLC, 24 µM; in the assay with HOP-18 NSCLC, 30.5 µM; in the assay with DMS 114 small cell lung, 28.5 µM; in the assay on SNB-78 CNS it was 68.6 µM; in the assay with DLD-1 colon, 32.9 µM.

With `Nc1nc2[nH]cc(CCc3ccc(C(=O)N[C@@H](CCC(=O)O)C(=O)O)cc3)c2c(=O)[nH]1`, the TGI in the assay with MDA-N is > 100 µM.

For `COc1ccc2c(c1)[n+]([O-])c(C(N)=O)c(N)[n+]2[O-]`, the TGI with M19-MEL melanoma is > 100 µM; with LXFL 529 NSCLC it was > 100 µM; in the assay with HOP-18 NSCLC, > 100 µM; in the assay on DMS 114 small cell lung it was 98.8 µM; in the assay on SNB-78 CNS, > 100 µM; with RXF-631 renal, > 100 µM. For the same molecule, the TGI in the assay with DLD-1 colon is > 100 µM.

With `CCOc1ccc(NC2=CC(=O)C(=O)c3ccccc32)cc1`, the TGI is 2.03 µM in the assay on M19-MEL melanoma; 11.2 µM with LXFL 529 NSCLC; 4.61 µM in the assay with HOP-18 NSCLC; 5.31 µM in the assay with XF 498 CNS; 3.71 µM in the assay on DMS 114 small cell lung; 39.5 µM in the assay with SNB-78 CNS. Moreover, the TGI in the assay with MDA-N came to 3.94 µM; with DLD-1 colon, 21.7 µM.

With `COC1=CC(=O)C(C2(OC(C)C)OC(=O)C(Cl)=C2Cl)=CC1=O` (stereo not drawn), in the assay on MDA-N, the TGI was > 100 µM.

Consider `[O-][Cl+3]([O-])([O-])[O-].[O]=[Ru]=[O].c1ccc(-c2ccccn2)nc1.c1ccc(-c2ccccn2)nc1`, for which the GI50 was > 100 µM with M19-MEL melanoma; 41.3 µM in the assay with LXFL 529 NSCLC; > 100 µM in the assay on HOP-18 NSCLC; 21.9 µM with DMS 114 small cell lung; > 100 µM in the assay on SNB-78 CNS; > 100 µM in the assay on DLD-1 colon. Further, the TGI in the assay with M19-MEL melanoma was > 100 µM; with LXFL 529 NSCLC, > 100 µM; in the assay with HOP-18 NSCLC it was > 100 µM; in the assay with DMS 114 small cell lung, 61.2 µM; in the assay with SNB-78 CNS it was > 100 µM; with DLD-1 colon, > 100 µM.

In the case of `Clc1ccc2cccc3c2c1C1OC3c2ccccc21` (stereo not drawn), the TGI with M19-MEL melanoma, in the assay on LXFL 529 NSCLC, with HOP-18 NSCLC, with XF 498 CNS, with DMS 114 small cell lung and with SNB-78 CNS was > 100 µM each time. For the same molecule, in the assay with DLD-1 colon, the TGI was > 100 µM.

Turning to `Cc1[cH-]c(=O)n(-c2ccccc2)n1.[Au+].[Au].c1ccc([PH+](c2ccccc2)c2ccccc2)cc1.c1ccc([PH+](c2ccccc2)c2ccccc2)cc1`, the GI50 with M19-MEL melanoma was 28.1 µM; in the assay on LXFL 529 NSCLC it was 0.488 µM and 1.09 µM; with HOP-18 NSCLC it was 4.06 µM and 10.3 µM; in the assay with DMS 114 small cell lung, 2.81 µM; with SNB-78 CNS, 3.43 µM and 14.6 µM; in the assay on DLD-1 colon it was 15.7 µM. For the same molecule, the TGI in the assay with M19-MEL melanoma is > 100 µM; with LXFL 529 NSCLC, 2.38 µM and 3.55 µM; in the assay with HOP-18 NSCLC it was 27 µM; with DMS 114 small cell lung it was 11.6 µM; in the assay on SNB-78 CNS it was > 100 µM; in the assay on DLD-1 colon, 41.5 µM.

`N#CCCC[Si]12OCCN(CCO1)CCO2`: the TGI in the assay on M19-MEL melanoma, with LXFL 529 NSCLC, in the assay with HOP-18 NSCLC, in the assay with DMS 114 small cell lung, in the assay with SNB-78 CNS and in the assay with DLD-1 colon was > 100 µM each time.

Regarding `CC#Cc1ccc(-c2ccccc2)s1`, the TGI with MDA-N is > 100 µM.

In the case of `O=C(/C=C/c1c(O)ccc2ccccc12)c1ccc([N+](=O)[O-])cc1`, the TGI in the assay with M19-MEL melanoma is 35.4 µM; in the assay on LXFL 529 NSCLC, 30.4 µM; in the assay on HOP-18 NSCLC, 47.6 µM; in the assay on XF 498 CNS it was > 100 µM; with DMS 114 small cell lung it was 41.1 µM; in the assay with SNB-78 CNS it was 66.4 µM. In the assay with DLD-1 colon, this molecule came in with a TGI of 40.8 µM.

As to `COc1c(CC(C)=O)ccc2c1C(=O)c1ccc(C=O)c(OC(C)=O)c1C2=O`, the TGI stood at 19.4 µM in the assay on LXFL 529 NSCLC; 40.6 µM in the assay with HOP-18 NSCLC; 33.2 µM with DMS 114 small cell lung; 55.6 µM in the assay on SNB-78 CNS; 47.8 µM in the assay on RXF-631 renal; 14.3 µM in the assay with DLD-1 colon.

For `CCOC(=O)C1Sc2ccccc2N=C1C` (stereo not drawn), the TGI in the assay on M19-MEL melanoma, in the assay on LXFL 529 NSCLC, in the assay on HOP-18 NSCLC, with XF 498 CNS, with DMS 114 small cell lung and with SNB-78 CNS was > 100 µM in each case. For the same molecule, the TGI in the assay on DLD-1 colon is > 100 µM.

On to `C[C@@H]1CC[C@H]2C(C)(C)[C@H]3C[C@@]12CC[C@@]3(C)O`, for which, in the assay on MDA-N, the TGI was > 100 µM.

Turning to `CN1C(=O)C(=O)N2c3ccc(Cl)cc3C3(c4ccccc4)N=CC12O3` (stereo not drawn), the TGI in the assay with M19-MEL melanoma was found to be 13.7 µM; in the assay with LXFL 529 NSCLC, 10.2 µM; in the assay with HOP-18 NSCLC it was 34.6 µM; in the assay on XF 498 CNS it was 12.3 µM; with DMS 114 small cell lung it was 11.6 µM; with SNB-78 CNS it was 33.8 µM. Further, in the assay on DLD-1 colon, the TGI is 10.3 µM.

Turning to `COc1ccc(/C=C/COC(C)=O)cc1OC`, the TGI with M19-MEL melanoma, in the assay on LXFL 529 NSCLC, with DMS 114 small cell lung and in the assay with SNB-78 CNS was > 100 µM throughout.

For the molecule `CN(C)CC1CCCC/C1=N/O` (stereo not drawn), the TGI in the assay on M19-MEL melanoma, in the assay with LXFL 529 NSCLC, with HOP-18 NSCLC, in the assay with DMS 114 small cell lung, in the assay on SNB-78 CNS and in the assay on RXF-631 renal was > 100 µM in each case. Further, in the assay with DLD-1 colon, the TGI was > 100 µM.

Consider `O=c1[nH]c(-c2ccccc2)nc2cc(Cl)ccc12`, for which the TGI in the assay with M19-MEL melanoma, in the assay on LXFL 529 NSCLC, with XF 498 CNS, in the assay on DMS 114 small cell lung, in the assay with SNB-78 CNS and in the assay on RXF-631 renal was > 100 µM in each case. Besides, the TGI in the assay on DLD-1 colon is > 100 µM.

In turn, `Br[Se]c1ccccn1` came in with a TGI in the assay on MDA-N of 32.2 µM.

On to `CCC(C)SC1SCC2C(=O)N(C)C3(CC3C)C(=O)OCC(NC(=O)c3nc4ccccc4cc3O)C(=O)NC(C)C(=O)N(C)C1C(=O)N(C)C1(CC1C)C(=O)OCC(NC(=O)c1nc3ccccc3cc1O)C(=O)NC(C)C(=O)N2C` (stereo not drawn), for which the TGI in the assay on M19-MEL melanoma was 0.000236 µM; in the assay with LXFL 529 NSCLC, 0.791 µM; in the assay with HOP-18 NSCLC, 24.1 µM; in the assay on XF 498 CNS, 0.000434 µM; with DMS 114 small cell lung it was 0.000279 µM; in the assay on SNB-78 CNS it was 0.255 µM. In addition, the TGI in the assay on MDA-N is 0.000162 µM; in the assay on RXF-631 renal, 1.22 µM; in the assay with DLD-1 colon, 0.0732 µM.

Turning to `CCCOc1nc(N)c2cnn(C3CCCCO3)c2n1` (stereo not drawn), the TGI in the assay on M19-MEL melanoma, with LXFL 529 NSCLC, in the assay on HOP-18 NSCLC, with DMS 114 small cell lung, in the assay with SNB-78 CNS and in the assay on DLD-1 colon was > 100 µM each time.

The values are drawn from PubChem BioAssay (NCI).
